Test system: healthy male volunteers
Assay: Randomized, double-blind, placebo-controlled gastric emptying study (99Tc radiolabeled meal, external scintigraphy)
Assay type: in vivo, human
Experimental: Methodology: This is a single center, double-blind, randomized, parallel group trial using a placebo control or tegaserod 6 mg t.i.d. in combination with omeprazole 20 mg b.i.d. Gastric emptying is assessed using a standardized method that has been previously validated and found to be sensitive and specific. After an overnight fast, the subjects are asked to ingest a standardized ^99Tc radiolabeled meal (250 ml EggBeater, the equivalent of two eggs, two slices of white bread, 30 cc of strawberry jam and 120 ml of water). The level of radioactivity in gastric contents is measured by external scintigraphy immediately following completion of the meal and then at 60, 120 and 240 minutes after the end of the meal.
Number of subjects: 40 healthy male volunteers (20 per group)
Investigational drug: Tegaserod 6 mg tablets (supplied by Novartis Canada, but are normal 6 mg Zelnorm tablet obtainable as prescription) for oral administration. Each dose consists of a tablet to be taken with a glass of water within 15-30 minutes before mealtime three times daily. […]
Efficacy: The primary efficacy parameter is time to half emptying (T1/2) of gastric contents. The secondary efficacy endpoints were the calculated lag phase, and percent of gastric contents remaining in the stomach at 60, 120 and 240 minutes after ingestion of a standard meal. […]

CCCCCNC(=N)N/N=C/c1c[nH]c2ccc(OC)cc12 [tegaserod, 3-(5-methoxy-1H-indol-3-yl-methylene)-N-pentylcarbazimidamide]
gastric emptying at all the studied time points versus baseline (tegaserod 6 mg t.i.d. in combination with omeprazole 20 mg b.i.d., oral, 14 days): not statistically different from the respective baseline values
development of delayed gastric emptying caused by omeprazole (tegaserod added to omeprazole, healthy male volunteers): prevented development of delayed gastric emptying

Source: US20080161307A1, “Organic Compounds” (priority 2005, published 2008)
